Legend:
[1] = test system: Mycosphaerella graminicola (Septoria tritici); assay: Mycosphaerella graminicola (Septoria tritici) / liquid culture (Septoria blotch); format: cell-based; conditions: Zymoseptoria tritici, PDB potato dextrose broth, 96-well plate, 24° C., 4-5 days after application, read-out: control of Mycosphaerella graminicola (inhibition of growth, photometric)
[2] = test system: Gaeumannomyces graminis; assay: Gaeumannomyces graminis / liquid culture (take-all of cereals); format: cell-based; conditions: liquid culture of mycelial fragments, PDB potato dextrose broth, 96-well plate, 24° C., 4-5 days after application, read-out: control of Gaeumannomyces graminis (inhibition of growth, photometric)
[3] = test system: Botryotinia fuckeliana (Botrytis cinerea); assay: Botryotinia fuckeliana (Botrytis cinerea) / liquid culture (gray mould); format: cell-based; conditions: Vogels broth, 96-well plate, 24° C., 3-4 days after application, read-out: control of Botryotinia fuckeliana (inhibition of growth, photometric)
[4] = test system: Mycosphaerella arachidis (Cercospora arachidicola); assay: Mycosphaerella arachidis (Cercospora arachidicola) / liquid culture (early leaf spot); format: cell-based; conditions: PDB potato dextrose broth, 96-well plate, 24° C., 4-5 days after application, read-out: control of Mycosphaerella arachidis (inhibition of growth, photometric)
[5] = test system: Pyrenophora teres; assay: Pyrenophora teres / barley / leaf disc preventative (net blotch); format: in vivo; conditions: foliar, barley cv Hasso leaf segments, inoculated two days after application, assessed 5-7 days after application, read-out: control of Pyrenophora teres (disease control compared to untreated)
[6] = test system: Blumeria graminis f. sp. tritici (Erysiphe graminis f. sp. tritici); assay: Blumeria graminis f. sp. tritici (Erysiphe graminis f. sp. tritici) / wheat / leaf disc preventative (powdery mildew on wheat); format: in vivo; conditions: foliar, wheat cv. Kanzler leaf segments, inoculated 1 day after application, assessed 6-8 days after application, read-out: control of Blumeria graminis (percent disease control compared to untreated)
[7] = test system: Puccinia recondita f. sp. tritici; assay: Puccinia recondita f. sp. tritici / wheat / leaf disc curative (brown rust); format: in vivo; conditions: foliar, wheat cv Kanzler leaf segments, applied 1 day after inoculation, assessed 6-8 days after application, read-out: control of Puccinia recondita f. sp. tritici (percent disease control compared to untreated)
Protocol: Puccinia recondita f. sp. tritici/Wheat/Leaf Disc Curative (Brown Rust): Wheat leaf segments cv Kanzler were placed on agar in 24-well plates. The leaf segments were inoculated with a spore suspension of the fungus. The plates were stored in darkness at 19° C. and 75% relative humidity. The formulated test compound diluted in water was applied at an application rate of 200 ppm 1 day after inoculation.

[8] = test system: Glomerella lagenarium (Colletotrichum lagenarium); assay: Glomerella lagenarium (Colletotrichum lagenarium) / liquid culture (anthracnose); format: cell-based; conditions: Colletotrichum orbiculare, PDB potato dextrose broth, 96-well plate, 24° C., 3-4 days after application, read-out: control of Glomerella lagenarium (inhibition of growth, photometric)
[9] = test system: Phaeosphaeria nodorum (Septoria nodorum); assay: Phaeosphaeria nodorum (Septoria nodorum) / wheat / leaf disc preventative (glume blotch); format: in vivo; conditions: Parastagonospora nodorum, foliar, wheat cv Kanzler leaf segments, inoculated 2 days after application, assessed 5-7 days after application, read-out: control of Phaeosphaeria nodorum (percent disease control compared to untreated)
[10] = test system: Puccinia recondita f. sp. tritici; assay: Puccinia recondita f. sp. tritici / wheat / leaf disc preventative (brown rust); format: in vivo; conditions: foliar, wheat cv Kanzler leaf segments, inoculated 1 day after application, assessed 7-9 days after application, read-out: control of Puccinia recondita f. sp. tritici (percent disease control compared to untreated)
Protocol: Puccinia recondita f. sp. tritici/Wheat/Leaf Disc Preventative (Brown Rust) Wheat leaf segments cultivated variety (cv) Kanzler were placed on agar in 24-well plates and sprayed with formulated test compound diluted in water at an application rate of 200 ppm. The leaf disks were inoculated with a spore suspension of the fungus 1 day after application. The inoculated leaf segments were incubated at 19° C. and 75% relative humidity under a light regime of 12/12 h (light/dark) in a climate cabinet and the activity of a compound was assessed as percent disease control compared to untreated when an appropriate level of disease damage appears in untreated check leaf segments (7-9 days after application). […].103

[11] = test system: Monographella nivalis (Microdochium nivale); assay: Monographella nivalis (Microdochium nivale) / liquid culture (foot rot cereals); format: cell-based; conditions: PDB potato dextrose broth, 96-well plate, 24° C., 4-5 days after application, read-out: control of Monographella nivalis (inhibition of growth, photometric)
Protocol: Monographella nivalis (Microdochium nivale)/Liquid Culture (Foot Rot Cereals): Conidia of the fungus from cryogenic storage were directly mixed into nutrient broth (PDB potato dextrose broth). After placing a DMSO solution of test compound into a 96-well microtiter plate at an application rate of 200 ppm, the nutrient broth containing the fungal spores was added. The test plates were incubated at 24° C. and the inhibition of growth was determined photometrically 4-5 days after application. […].103

[12] = test system: Thanatephorus cucumeris (Rhizoctonia solani); assay: Thanatephorus cucumeris (Rhizoctonia solani) / liquid culture (foot rot, damping-off); format: cell-based; conditions: liquid culture of mycelia fragments, PDB potato dextrose broth, 96-well plate, 24° C., 3-4 days after application, read-out: control of Thanatephorus cucumeris (inhibition of growth, photometric)
Protocol: Thanatephorus cucumeris (Rhizoctonia solani)/Liquid Culture (Foot Rot, Damping-Off): Mycelia fragments of a newly grown liquid culture of the fungus are directly mixed into nutrient broth (PDB potato dextrose broth). After placing a DMSO solution of the test compounds into a 96-well microtiter plate at an application rate of 200 ppm, the nutrient broth containing the fungal material was added. The test plates were incubated at 24° C. and the inhibition of growth was determined photometrically 3-4 days after application.

CO/N=C(/c1cccc(CCCO/N=C(\C)c2cccc(C)n2)n1)C(C)C (single isomer, unassigned) [P.23A]
≥ 80%: inhibition at 200 ppm [1] | inhibition at 200 ppm [2] | inhibition at 200 ppm [3] | inhibition at 200 ppm [4] | pest or weed control at 200 ppm [5] | pest or weed control at 200 ppm [6]

CCO/N=C(\C)c1cccc(CCCO/N=C(\C)c2cccc(C)n2)n1 [P.01]
≥ 80%: inhibition at 200 ppm [1] | pest or weed control at 200 ppm [7] | inhibition at 200 ppm [3] | inhibition at 200 ppm [8] | pest or weed control at 200 ppm [9] | inhibition at 200 ppm [4] | pest or weed control at 200 ppm [10] | pest or weed control at 200 ppm [5] | pest or weed control at 200 ppm [6]

C#CCO/N=C(\C)c1cccc(CCCO/N=C(\C)c2cccc(C)n2)n1 [P.02]
≥ 80%: inhibition at 200 ppm [11] | inhibition at 200 ppm [1] | pest or weed control at 200 ppm [7] | inhibition at 200 ppm [2] | inhibition at 200 ppm [3] | pest or weed control at 200 ppm [9] | inhibition at 200 ppm [4]

CO/N=C(\C)c1cccc(CC(C)CO/N=C(\C)c2cccc(C)n2)n1 (stereo not shown) [P.03]
≥ 80%: inhibition at 200 ppm [11] | inhibition at 200 ppm [1] | pest or weed control at 200 ppm [7] | inhibition at 200 ppm [12] | inhibition at 200 ppm [3] | inhibition at 200 ppm [8] | pest or weed control at 200 ppm [9] | inhibition at 200 ppm [4] | pest or weed control at 200 ppm [10] | pest or weed control at 200 ppm [5] | pest or weed control at 200 ppm [6]

CO/N=C(\C)c1cccc(CCCO/N=C(\C)c2cccc(-c3ccccc3OC)n2)n1 [P.08]
≥ 80%: inhibition at 200 ppm [11] | inhibition at 200 ppm [1] | pest or weed control at 200 ppm [7] | inhibition at 200 ppm [3] | pest or weed control at 200 ppm [9] | inhibition at 200 ppm [4] | pest or weed control at 200 ppm [10] | pest or weed control at 200 ppm [5] | pest or weed control at 200 ppm [6]

C=CCO/N=C(\C)c1cccc(CCCO/N=C(\C)c2cccc(C)n2)n1 [P.09]
≥ 80%: inhibition at 200 ppm [11] | inhibition at 200 ppm [1] | pest or weed control at 200 ppm [7] | inhibition at 200 ppm [3] | inhibition at 200 ppm [8] | pest or weed control at 200 ppm [9] | inhibition at 200 ppm [4] | pest or weed control at 200 ppm [10] | pest or weed control at 200 ppm [5] | pest or weed control at 200 ppm [6]

CO/N=C(\C)c1cccc(CCCO/N=C(\C)c2cccc(-c3cccc(OC)c3)n2)n1 [P.14]
≥ 80%: inhibition at 200 ppm [1] | inhibition at 200 ppm [2] | pest or weed control at 200 ppm [9] | inhibition at 200 ppm [4] | pest or weed control at 200 ppm [10] | pest or weed control at 200 ppm [5]

CCc1cccc(/C(C)=N/OCCCc2cccc(/C(C)=N/OC)n2)n1 [P.19]
≥ 80%: inhibition at 200 ppm [1] | pest or weed control at 200 ppm [7] | inhibition at 200 ppm [12] | inhibition at 200 ppm [3] | pest or weed control at 200 ppm [9] | inhibition at 200 ppm [4] | pest or weed control at 200 ppm [5]

CC/C(=N\OC)c1cccc(CCCO/N=C(\C)c2cccc(C)n2)n1 [P.22]
≥ 80%: inhibition at 200 ppm [11] | inhibition at 200 ppm [1] | pest or weed control at 200 ppm [7] | inhibition at 200 ppm [2] | inhibition at 200 ppm [3] | inhibition at 200 ppm [8] | pest or weed control at 200 ppm [9] | inhibition at 200 ppm [4] | pest or weed control at 200 ppm [10] | pest or weed control at 200 ppm [5] | pest or weed control at 200 ppm [6]

CO/N=C(\C)c1cccc(CCCO/N=C(/c2ccccn2)c2ncc(C(F)(F)F)cc2Cl)n1 [P.51]
≥ 80%: inhibition at 200 ppm [11] | inhibition at 200 ppm [1] | inhibition at 200 ppm [12] | inhibition at 200 ppm [2] | inhibition at 200 ppm [3] | inhibition at 200 ppm [8] | pest or weed control at 200 ppm [9] | inhibition at 200 ppm [4]

CO/N=C(\C)c1cccc(CCCO/N=C2\CCCc3c2nc2ccccc2c3C)n1 [P.55]
≥ 80%: inhibition at 200 ppm [11] | inhibition at 200 ppm [1] | pest or weed control at 200 ppm [7] | inhibition at 200 ppm [2] | inhibition at 200 ppm [3] | inhibition at 200 ppm [8] | pest or weed control at 200 ppm [9] | inhibition at 200 ppm [4] | pest or weed control at 200 ppm [10] | pest or weed control at 200 ppm [5] | pest or weed control at 200 ppm [6]

CO/N=C(\C)c1cccc(CCCO/N=C2\CCCc3ccc(OC)nc32)n1 [P.56]
≥ 80%: inhibition at 200 ppm [11] | inhibition at 200 ppm [1] | pest or weed control at 200 ppm [7] | inhibition at 200 ppm [12] | inhibition at 200 ppm [2] | inhibition at 200 ppm [3] | inhibition at 200 ppm [8] | pest or weed control at 200 ppm [9] | inhibition at 200 ppm [4] | pest or weed control at 200 ppm [6]

CO/N=C(\C)c1cccc(CCCO/N=C2\CCCc3c2nc2cc(OC)ccc2c3C)n1 [P.69]
≥ 80%: inhibition at 200 ppm [11] | inhibition at 200 ppm [1] | pest or weed control at 200 ppm [7] | inhibition at 200 ppm [12] | inhibition at 200 ppm [2] | inhibition at 200 ppm [3] | inhibition at 200 ppm [8] | pest or weed control at 200 ppm [9] | inhibition at 200 ppm [4] | pest or weed control at 200 ppm [10] | pest or weed control at 200 ppm [6]

CO/N=C(\C)c1cccc(CCCO/N=C2\CCCc3c2nc2cc(Cl)ccc2c3C)n1 [P.83]
≥ 80%: inhibition at 200 ppm [1] | inhibition at 200 ppm [2] | inhibition at 200 ppm [3] | inhibition at 200 ppm [8] | inhibition at 200 ppm [4] | pest or weed control at 200 ppm [5] | pest or weed control at 200 ppm [6]

CO/N=C(\C)c1cccc(CCCO/N=C2\CCCc3c2nc2ccc(Br)cc2c3C)n1 [P.84]
≥ 80%: inhibition at 200 ppm [1] | inhibition at 200 ppm [2] | inhibition at 200 ppm [3] | inhibition at 200 ppm [8] | pest or weed control at 200 ppm [9] | inhibition at 200 ppm [4] | pest or weed control at 200 ppm [5] | pest or weed control at 200 ppm [6]

CO/N=C(\C)c1cccc(CCCO/N=C2\CCCc3c2nc2ccccc2c3Cl)n1 [P.95]
≥ 80%: inhibition at 200 ppm [11] | inhibition at 200 ppm [1] | inhibition at 200 ppm [12] | inhibition at 200 ppm [2] | inhibition at 200 ppm [3] | inhibition at 200 ppm [8] | pest or weed control at 200 ppm [9] | inhibition at 200 ppm [4] | pest or weed control at 200 ppm [5]

CO/N=C(\C)c1cc(OC)cc(CCCO/N=C(\C)c2cccc(C)n2)n1 [P.103]
≥ 80%: inhibition at 200 ppm [11] | inhibition at 200 ppm [1] | pest or weed control at 200 ppm [7] | inhibition at 200 ppm [2] | inhibition at 200 ppm [3] | inhibition at 200 ppm [8] | pest or weed control at 200 ppm [9] | inhibition at 200 ppm [4] | pest or weed control at 200 ppm [10] | pest or weed control at 200 ppm [5] | pest or weed control at 200 ppm [6]

— patent publication US20140309244A1, “NOVEL MICROBIOCIDES” (SYNGENTA PARTICIPATIONS AG, priority 2010, published 2014)
